Measured values published in patent US5081114A, “Steroids” (Roussel Uclaf, priority 1989, dated 1992).

Biological target: T1, aromatase (Homo sapiens, UniProt P11511)
T1 construct: This supernatant was subjected to an ultracentrifugation stage for 90 minutes at 105,000 g to obtain the microsomal deposit; from tissue; host or cells: human placenta, microsomes
T1 sequence (P11511 1-503): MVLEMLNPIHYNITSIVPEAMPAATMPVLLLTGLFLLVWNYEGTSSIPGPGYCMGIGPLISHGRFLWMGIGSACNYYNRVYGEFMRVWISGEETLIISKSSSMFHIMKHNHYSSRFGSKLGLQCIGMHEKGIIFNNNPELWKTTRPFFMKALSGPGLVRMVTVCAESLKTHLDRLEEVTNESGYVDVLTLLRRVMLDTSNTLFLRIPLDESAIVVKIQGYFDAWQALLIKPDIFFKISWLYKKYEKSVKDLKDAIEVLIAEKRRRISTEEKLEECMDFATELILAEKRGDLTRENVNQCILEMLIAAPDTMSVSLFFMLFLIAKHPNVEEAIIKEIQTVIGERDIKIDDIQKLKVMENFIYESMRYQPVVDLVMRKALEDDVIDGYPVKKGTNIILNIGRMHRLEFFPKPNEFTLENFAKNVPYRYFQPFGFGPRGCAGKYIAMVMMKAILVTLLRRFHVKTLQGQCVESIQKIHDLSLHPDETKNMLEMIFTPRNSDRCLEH
Assay: Inhibition of aromatase in placental microsomes (measurement of the CI50)
Format: biochemical
Conditions: human placental microsomes (25 microgramms of proteins per test); 60 nM Androstenedione with 1β-2β-(H^3)-Androstenedione; NADPH; pH=7.2; 37° C., 10 minutes; tritiated water release; read-out: CI50 (concentration of the inhibitor necessary to reduce the enzymatic activity by 50%)
Procedure: Inhibition dependent on the concentration (measurement of the CI50 =concentration of the inhibitor necessary to reduce the enzymatic activity by 50%).
Human placentas were used which were washed one hour at most after delivery, then perfused with physiological serum (5 liters) via the umbilical vein, then deep-frozen at -40° C.
1) Obtaining the placental microsomes
The placentas were thawed out at 4° C., then homogenized (1:3) in a 10 mM phosphate buffer, pH=7.0 containing 100 milimoles of potassium chloride (KCl), 10 millimoles of dithiothreitol (DTT), 10 millimoles of ethylenediaminetetra-acetic acid (EDTA), 40 millimoles of nicotinamide and 250 millimoles of sucrose. The homogenates were then subjected to different phases of centrifugation until a "9000 g" supernatant was obtained (corresponding to cytosol and to endosplasmic reticulum). […] The protein concentration of the microsomal suspension was determined by the BRADFORD method [BRADFORD, Anal. Biochem., Voml. […]
Then the enzymatic reaction was very rapidly initiated by the addition of 10 microliters of reduced nicotinamide adenine dinucleotide phosphate (NADPH) solubilized in water. […] After centrifugation, and for each tube, 100 microliters of supernatant was removed and counted in the presence of a scintillating liquid. […]

`CC12CC=C3C(CCC4=CC(=O)CCC43CC=O)C1CCC2=O` (stereo not shown) [Example 3, ^4,9(11) -androstadiene-3,17-dione-19-carboxaldehyde] was tested, and the IC50 was 85 nM.
